30 compounds from US7078438B2, “N-(4 substituted phenyl)-anthranilic acid hydroxamate esters” (Warner-Lambert Company, priority 2002, dated 2006) can be followed below.

pIC50: −log10 of the molar value.

The test system of data set [1] is MEK. Kind of data set: Cellular assay for measuring MEK inhibition (inhibition of ERK phosphorylation). The format is cell-based. Conditions: inhibition of phosphorylation of MAP kinase (ERK) in murine colon 26 (C26) carcinoma cells; 1 hour at 37° C.; Western blotting. How it is done:
Cellular Assay for Measuring MEK Inhibition
The evaluation of the compounds as MEK inhibitors is performed in an assay that measures their ability to inhibit phosphorylation of MAP kinase (ERK) in murine colon 26 (C26) carcinoma cells. Since ERK1 and ERK2 represent the only known substrates for MEK, measurement of inhibition of ERK phosphorylation in cells provides direct readout of cellular MEK inhibition by the compounds of the invention. Briefly, the assay involves treating exponentially growing C26 cells with varying concentrations of the test compound (or vehicle control) for 1 hour at 37° C. Cells are then rinsed free of compound/vehicle and lysed in a solution containing 70 mM NaCl, 50 mM glycerol phosphate, 10 mM HEPES, pH 7.4, 1% Triton X-100, 1 mM Na3VO4, 100 μM PMSF, 10 μM leupeptin, and 10 μM pepstatin. Supernatants are then subjected to gel electrophoresis and Western blotting using a primary antibody recognizing dually phosphorylated ERK1 and ERK2. To evaluate total MAPK levels, blots were subsequently ‘stripped’ and re-probed with a 1:1 mixture of polyclonal antibodies recognizing unphosphorylated ERK1 and ERK2.
The inhibition data generated by the above protocol is disclosed in Table 1. If several concentrations of inhibitor were tested, IC50 values (the concentration which gives 50% inhibition) were determined graphically from the dose response curve for % inhibition. Otherwise, percent inhibitions at measured concentrations are reported.

As a reminder, the melting point is the temperature of the solid-liquid transition. Turning to `CCc1ccc(Nc2c(C(=O)NOC(CO)CO)ccc(F)c2F)c(F)c1` [Example 33, 2-(4-Ethyl-2-fluoro-phenylamino)-3,4-difluoro-N-(2-hydroxy-1-hydroxymethyl-ethoxy)-benzamide], the melting point was 91 to 93 °C.
Still for that read-out and setting: next, `O=C(NOCCO)c1ccc(F)c(F)c1Nc1ccc(CO)cc1F` [Example 18, 3,4-Difluoro-2-[2-fluoro-4-(hydroxymethyl)anilino]-N-(2-hydroxyethoxy)benzamide]: 108 to 110 °C.
One may read the pIC50 as the IC50 on a negative log10 scale, so that one unit is a factor of ten. With `CCC(C)(O)C#Cc1ccc(Nc2c(C(=O)NOCCO)ccc(F)c2F)c(F)c1` (stereo not shown) [Example 13, 3,4-Difluoro-2-[2-fluoro-4-(3-hydroxy-3-methyl-1-pentynyl)anilino]-N-(2-hydroxyethoxy)benzamide], the melting point fell in the range of 127 to 131 °C. The compound further gave a pIC50 in data set [1] of under 6.00.
Consider `CC(C)(O)C#Cc1ccc(Nc2c(C(=O)NOCCO)ccc(F)c2F)c(F)c1` [Example 12, 3,4-Difluoro-2-[2-fluoro-4-(3-hydroxy-3-methyl-1-butynyl)anilino]-N-(2-hydroxyethoxy)benzamide], for which the melting point fell in the range of 139 to 142 °C. For the same compound, in data set [1], the pIC50 was under 5.52.
The matching figures for `Cc1ccc(Nc2c(C(=O)NOCCO)ccc(F)c2F)c(F)c1` [Example 3, 3,4-Difluoro-2-(2-fluoro-4-methylanilino)-N-(2-hydroxyethoxy)benzamide]: 134 to 139 °C and 9.82.
Consider `O=C(NOCCO)c1ccc(F)c(F)c1Nc1ccc(C#CCO)cc1F` [Example 10, 3,4-Difluoro-2-[2-fluoro-4-(3-hydroxy-1-propynyl)anilino]-N-(2-hydroxyethoxy)benzamide], for which the melting point was 169 to 172 °C. The compound further had a pIC50 in data set [1] of 6.89.
As for `CCc1ccc(Nc2c(C(=O)NOC[C@@H](O)CO)ccc(F)c2F)c(F)c1` [Example 32, N-[(S+)2,3-Dihydroxy-propoxy]-2-(4-ethyl-2-fluoro-phenylamino)-3,4-difluoro-benzamide], the pIC50 in data set [1] was 8.70.
On to `CNCCCc1ccc(Nc2c(C(=O)NOCCO)ccc(F)c2F)c(F)c1` [Example 16, 3,4-Difluoro-2-{2-fluoro-4-[3-(methylamino)propyl]anilino}-N-(2-hydroxyethoxy)benzamide], for which the melting point fell in the range of 112 to 116 °C. Moreover, the pIC50 in data set [1] is under 6.00.
Compound `CCCc1ccc(Nc2c(C(=O)NOCCO)ccc(F)c2F)c(F)c1` [Example 29, 3,4-Difluoro-2-(2-fluoro-4-propylanilino)-N-(2-hydroxyethoxy)benzamide] gave a melting point of 144 to 146 °C. Also, the pIC50 in data set [1] was 8.39.
In the case of `CCC(C)(O)CCc1ccc(Nc2c(C(=O)NOCCO)ccc(F)c2F)c(F)c1` (stereo not shown) [Example 24, 3,4-Difluoro-2-[2-fluoro-4-(3-hydroxy-3-methylpentyl)anilino]-N-(2-hydroxyethoxy)benzamide], the pIC50 in data set [1] is 6.23.
Consider `CCc1ccc(Nc2c(C(=O)NOCCO)ccc(F)c2F)c(Cl)c1` [Example 2, 2-(2-Chloro-4-ethyl-phenylamino)-3,4-difluoro-N-(2-hydroxy-ethoxy)-benzamide], for which the melting point is 142.5 to 145 °C. Further, the pIC50 in data set [1] is 8.07.
The matching figures for `O=C(NOCCO)c1ccc(F)c(F)c1Nc1ccc(CO)cc1` [Example 17, 3,4-Difluoro-N-(2-hydroxyethoxy)-2-[[4-(hydroxymethyl)phenyl]amino]benzamide]: 73 to 77 °C and under 6.00.
Take `CCCCc1ccc(Nc2c(C(=O)NOCCO)ccc(F)c2F)c(F)c1` [Example 30, 2-(4-Butyl-2-fluoroanilino)-3,4-difluoro-N-(2-hydroxyethoxy)benzamide]: in data set [1], the pIC50 was 6.72.
Take `O=C(NOCCO)c1ccc(F)c(F)c1Nc1ccc(C#CCCO)cc1F` [Example 11, 3,4-Difluoro-2-[2-fluoro-4-(4-hydroxy-1-butynyl)anilino]-N-(2-hydroxyethoxy)benzamide]: the melting point fell in the range of 126 to 129 °C. This compound had a pIC50 in data set [1] of 6.15.
In the same order, the values of `C=Cc1ccc(Nc2c(C(=O)NOCCO)ccc(F)c2F)c(F)c1` [Example 4, 3,4-Difluoro-2-[(2-fluoro-4-vinylphenyl)amino]-N-(2-hydroxyethoxy)benzamide] are 134 to 138 °C and 8.59.
In turn, `CCc1ccc(Nc2c(C(=O)NOCCO)ccc(F)c2F)c(F)c1` [Example 1, 2-[(4-Ethyl-2-fluorophenyl)amino]-3,4-difluoro-N-(2-hydroxyethoxy)benzamide] showed a pIC50 in data set [1] of 8.55.
Regarding `CCSc1ccc(Nc2c(C(=O)NOCCO)ccc(F)c2F)c(F)c1` [Example 27, 3,4-Difluoro-2-[[2-fluoro-4-(ethylthio)phenyl]amino]-N-(2-hydroxyethoxy)benzamide], the melting point fell in the range of 129 to 132 °C. The pIC50 in data set [1] was 8.66.
`CS(=O)(=O)c1ccc(Nc2c(C(=O)NOCCO)ccc(F)c2F)c(F)c1` [Example 28, 3,4-Difluoro-2-[[2-fluoro-4-(methylsulfonyl)phenyl]amino]-N-(2-hydroxyethoxy)benzamide] returned a melting point of 85 to 88 °C. The same compound showed a pIC50 in data set [1] of 6.14.
Take `CC(C)(O)CCc1ccc(Nc2c(C(=O)NOCCO)ccc(F)c2F)c(F)c1` [Example 23, 3,4-Difluoro-2-[2-fluoro-4-(3-hydroxy-3-methylbutyl)anilino]-N-(2-hydroxyethoxy)benzamide]: the pIC50 in data set [1] is 6.70.
`O=C(NOCCO)c1ccc(F)c(F)c1Nc1ccc(CCCO)cc1F` [Example 20, 3,4-Difluoro-2-[2-fluoro-4-(3-hydroxypropyl)anilino]-N-(2-hydroxyethoxy)benzamide] showed a melting point of 115 to 116 °C.
In turn, `O=C(NOCCO)c1ccc(F)c(F)c1Nc1ccc(CCCCO)cc1F` [Example 21, 3,4-Difluoro-2-[2-fluoro-4-(4-hydroxybutyl)anilino]-N-(2-hydroxyethoxy)benzamide] yielded a melting point of 65 to 69 °C. In data set [1], this compound showed a negative-log IC50 (pIC50) of 6.10.
The matching figures for `NCCCc1ccc(Nc2c(C(=O)NOCCO)ccc(F)c2F)c(F)c1` [Example 14, 2-[4-(3-Aminopropyl)-2-fluoroanilino]-3,4-difluoro-N-(2-hydroxyethoxy)benzamide]: 178 to 181 °C and under 6.00.
`COCCCc1ccc(Nc2c(C(=O)NOCCO)ccc(F)c2F)c(F)c1` [Example 25, 3,4-Difluoro-2-[[2-fluoro-4-(3-methoxypropyl)phenyl]amino]-N-(2-hydroxyethoxy)benzamide] gave a pIC50 in data set [1] of 7.66.
Regarding `C#Cc1ccc(Nc2c(C(=O)NOCCO)ccc(F)c2F)c(F)c1` [Example 7], the melting point was 158 to 161 °C. The compound also gave a pIC50 in data set [1] of 9.82.
Consider `CN(C)CCCc1ccc(Nc2c(C(=O)NOCCO)ccc(F)c2F)c(F)c1` [Example 15, 2-{4-[3-(Dimethylamino)propyl]-2-fluoroanilino}-3,4-difluoro-N-(2-hydroxyethoxy)benzamide], for which the pIC50 in data set [1] was under 6.00.
`O=C(NOCCO)c1ccc(F)c(F)c1Nc1ccc(CC(O)CO)cc1F` (stereo not shown) [Example 22, 2-[4-(2,3-Dihydroxypropyl)-2-fluoroanilino]-3,4-difluoro-N-(2-hydroxyethoxy)benzamide] had a melting point of 118 to 120 °C.
In turn, `CSc1ccc(Nc2c(C(=O)NOCCO)ccc(F)c2F)c(F)c1` [Example 26, 3,4-Difluoro-2-[[2-fluoro-4-(methylthio)phenyl]amino]-N-(2-hydroxyethoxy)benzamide] yielded a melting point of 108 to 111 °C. In addition, the pIC50 in data set [1] was 9.07.
The matching figures for `NCC#Cc1ccc(Nc2c(C(=O)NOCCO)ccc(F)c2F)c(F)c1` [Example 9, 2-[4-(3-Amino-1-propynyl)-2-fluoroanilino]-3,4-difluoro-N-(2-hydroxyethoxy)benzamide]: 72 to 76 °C and 6.33.
In the same order, the values of `C=CCc1ccc(Nc2c(C(=O)NOCCO)ccc(F)c2F)c(F)c1` [Example 6, 2-(4-Allyl-2-fluoroanilino)-3,4-difluoro-N-(2-hydroxyethoxy)benzamide] are 173 to 177 °C and 8.11.
In the same order, the values of `C#Cc1ccc(Nc2c(C(=O)NOCCO)ccc(F)c2F)c(Cl)c1` [Example 8, 2-(2-Chloro-4-ethynyl-phenylamino)-3,4-difluoro-N-(2-hydroxy-ethoxy)-benzamide] are 155 to 157 °C and 8.40.
